Test results published in patent US12048309B2, “Materials and methods for preventing and dispersing exopolysaccharide-containing biofilms involving Listeria monocytogenes” (University of Wyoming, priority 2021, dated 2024).

The compounds below were run on EPS-biofilm formation by L. monocytogenes (assay: Test of major ingredients of red maple (Acer rubrum) methanol extract for preventing EPS-biofilm formation). Conditions: ingredients of methanol extract of dried red maple stems.
Assay type: cell-based, Listeria monocytogenes
Procedure: To identify active components responsible for preventing EPS-biofilm formation by L. monocytogenes, major ingredients from methanol extract of dried red maple stems, Acer rubrum, were tested. The tested compositions included catechin, epicatechin, procyanidin A2, epicatechin gallate, nortrachelogenin (also known as pinopalustrin), and nortrachelogenin 8′-O-β-D-glucopyranoside (also known as nortrachelogenin-8′-O-beta-glucoside).
Other major ingredients of the maple methanol extract, including catechin, epicatechin, procyanidin A2, and epicatechin gallate had no effect.
With catechin the antibiofilm activity was “no effect”.
With `Oc1cc(O)c2c(c1)O[C@H](c1ccc(O)c(O)c1)[C@H](O)C2` [epicatechin] the antibiofilm activity was “no effect”.
With `COc1cc(CC2COC(=O)C2(O)Cc2ccc(O)c(OC)c2)ccc1O` (centres unmarked) [nortrachelogenin] the antibiofilm activity was “no significant antibiofilm activity”.
`O=C(O[C@@H]1Cc2c(O)cc(O)cc2O[C@@H]1c1ccc(O)c(O)c1)c1cc(O)c(O)c(O)c1` [epicatechin gallate] was tested, and the antibiofilm activity was “no effect”.
`Oc1cc(O)c2c(c1)O[C@@]1(c3ccc(O)c(O)c3)Oc3cc(O)c4c(c3[C@@H]2[C@H]1O)O[C@H](c1ccc(O)c(O)c1)[C@H](O)C4` [procyanidin A2] was tested, and the antibiofilm activity was “no effect”.
